Measurements: BindingDB's records for doi:10.1016/j.bmcl.2006.09.018 (Gsk, 2006)

Assays:
[1] = biological target: T1, Inhibitor of nuclear factor kappa-B kinase subunit beta (Homo sapiens, UniProt O14920); test: IKK Kinase Inhibition Assay; conditions: pH 7.4; 22 °C
T1 sequence (O14920 whole entry): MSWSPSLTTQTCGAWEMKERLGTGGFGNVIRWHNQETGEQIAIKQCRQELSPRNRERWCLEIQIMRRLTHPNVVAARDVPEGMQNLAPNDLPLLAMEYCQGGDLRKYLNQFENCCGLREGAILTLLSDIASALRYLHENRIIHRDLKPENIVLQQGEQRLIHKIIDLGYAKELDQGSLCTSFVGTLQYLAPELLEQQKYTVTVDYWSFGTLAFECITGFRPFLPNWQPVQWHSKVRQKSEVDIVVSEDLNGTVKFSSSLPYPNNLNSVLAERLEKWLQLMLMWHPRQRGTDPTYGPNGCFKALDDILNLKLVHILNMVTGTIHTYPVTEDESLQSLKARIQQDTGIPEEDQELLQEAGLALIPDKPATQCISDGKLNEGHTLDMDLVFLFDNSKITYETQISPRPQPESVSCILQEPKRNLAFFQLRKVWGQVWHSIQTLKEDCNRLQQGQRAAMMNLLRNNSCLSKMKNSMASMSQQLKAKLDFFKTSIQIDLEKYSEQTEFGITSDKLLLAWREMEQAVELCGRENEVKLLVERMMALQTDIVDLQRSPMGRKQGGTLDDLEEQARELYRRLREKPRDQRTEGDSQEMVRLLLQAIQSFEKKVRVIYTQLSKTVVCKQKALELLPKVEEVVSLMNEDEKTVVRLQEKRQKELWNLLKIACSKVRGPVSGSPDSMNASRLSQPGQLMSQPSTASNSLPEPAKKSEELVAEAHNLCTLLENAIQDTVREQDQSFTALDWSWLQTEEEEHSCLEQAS
Experimental: (§1) IKK kinase activity was assessed using a time-resolved fluorescence resonance energy transfer (TR-FRET) assay. The reaction was initiated by the addition of GST-IKBalpha substrate/ATP to the reaction buffer containing IKK kinase and test compounds. After incubation, detection reagent containing antiphosphoserine IKBalpha monoclonal antibody labelled with europium chelate, and an APC-labelled anti-GST antibody was added.

[2] = biological target: Serine/threonine-protein kinase PLK1 (Homo sapiens, UniProt P53350); test: Scintillation Proximity Assay (SPA); conditions: pH 7.2; 22 °C
Chain of Serine/threonine-protein kinase PLK1 (P53350 whole entry): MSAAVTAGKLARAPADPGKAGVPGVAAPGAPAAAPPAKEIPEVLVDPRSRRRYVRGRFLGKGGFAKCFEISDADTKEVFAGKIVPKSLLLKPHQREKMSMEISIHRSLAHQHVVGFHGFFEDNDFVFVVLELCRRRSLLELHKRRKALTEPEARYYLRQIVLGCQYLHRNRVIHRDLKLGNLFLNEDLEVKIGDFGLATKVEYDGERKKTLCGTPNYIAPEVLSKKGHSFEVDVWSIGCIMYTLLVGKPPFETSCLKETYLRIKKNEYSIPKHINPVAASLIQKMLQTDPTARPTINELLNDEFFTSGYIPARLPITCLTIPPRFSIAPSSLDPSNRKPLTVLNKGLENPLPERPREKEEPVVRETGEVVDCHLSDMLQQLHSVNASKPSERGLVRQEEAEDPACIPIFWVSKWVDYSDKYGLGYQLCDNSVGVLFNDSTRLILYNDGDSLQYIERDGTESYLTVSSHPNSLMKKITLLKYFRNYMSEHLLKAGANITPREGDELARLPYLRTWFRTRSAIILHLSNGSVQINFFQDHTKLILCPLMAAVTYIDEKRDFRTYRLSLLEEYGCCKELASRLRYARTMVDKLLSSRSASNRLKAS
Experimental: The compound inhibitory activity was determined by incubation with purified PLK1 and biotinylated peptide substrate in the presence ATP/[gamma-33P]ATP. After incubation, the phosphorylated substrate was separated from nonincorporated radioactive ATP using SPA beads. Incorporated radioactivity was measured using Packard TopCount.

[3] = biological target: T2, Inhibitor of nuclear factor kappa-B kinase subunit epsilon (Homo sapiens, UniProt Q14164); test: IKK Kinase Inhibition Assay; conditions: pH 7.4; 22 °C
T2 sequence (Q14164 whole entry): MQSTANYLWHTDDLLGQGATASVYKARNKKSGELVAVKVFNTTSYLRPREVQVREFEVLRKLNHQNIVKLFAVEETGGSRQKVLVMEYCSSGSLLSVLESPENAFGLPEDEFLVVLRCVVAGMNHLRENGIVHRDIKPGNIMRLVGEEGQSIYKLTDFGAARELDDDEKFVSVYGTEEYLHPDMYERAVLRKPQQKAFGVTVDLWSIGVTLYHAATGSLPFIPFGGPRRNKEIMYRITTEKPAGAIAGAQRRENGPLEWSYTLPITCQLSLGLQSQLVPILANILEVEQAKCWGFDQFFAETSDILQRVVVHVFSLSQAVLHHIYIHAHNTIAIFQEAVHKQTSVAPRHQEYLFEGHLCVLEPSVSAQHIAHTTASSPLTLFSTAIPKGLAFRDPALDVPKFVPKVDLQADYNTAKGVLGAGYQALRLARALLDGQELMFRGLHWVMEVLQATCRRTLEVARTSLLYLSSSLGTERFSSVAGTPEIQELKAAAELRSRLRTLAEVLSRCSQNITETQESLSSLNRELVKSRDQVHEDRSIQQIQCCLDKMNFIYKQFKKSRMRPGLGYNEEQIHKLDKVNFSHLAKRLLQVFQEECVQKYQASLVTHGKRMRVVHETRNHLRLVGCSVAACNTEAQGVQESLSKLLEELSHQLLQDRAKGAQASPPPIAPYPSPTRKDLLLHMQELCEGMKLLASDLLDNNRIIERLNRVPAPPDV
Experimental: as §1

Structure (SMILES) | IC50 [1] [µM] | IC50 [2] [µM] | IC50 [3] [µM]
COc1cc2ncn(-c3cc(OCC4CCCO4)c(C#N)s3)c2cc1OC (stereo not given) [5-(5,6-dimethoxy-1H-1,3-benzodiazol-1-yl)-3-(oxolan-2-ylmethoxy)thiophene-2-carbonitrile] | > 15.8 | > 10 | 
COc1cc2ncn(-c3cc(OCC4CCCO4)c(C(N)=O)s3)c2cc1OC (stereo not given) [5-(5,6-dimethoxy-1H-1,3-benzodiazol-1-yl)-3-(oxolan-2-ylmethoxy)thiophene-2-carboxamide] | > 15.8 |  | > 15.8
COc1cc2ncn(-c3cc(OCc4ccc(S(C)(=O)=O)cc4)c(C#N)s3)c2cc1OC [5-(5,6-dimethoxy-1H-1,3-benzodiazol-1-yl)-3-[(4-methanesulfonylphenyl)methoxy]thiophene-2-carbonitrile] | > 15.8 |  | 
Cc1ccc(COc2cc(-n3cnc4ccccc43)sc2C(N)=O)cc1 [BMCL191018 Compound 9] |  | 0.126 | 3.98

Next, values leading:

IC50 [1] [µM] | IC50 [2] [µM] | IC50 [3] [µM] | Structure (SMILES)
> 15.8 |  |  | COc1cc2ncn(-c3cc(OCc4ccccc4S(C)(=O)=O)c(C#N)s3)c2cc1OC [5-(5,6-dimethoxy-1H-1,3-benzodiazol-1-yl)-3-[(2-methanesulfonylphenyl)methoxy]thiophene-2-carbonitrile]
> 15.8 |  | > 15.8 | COc1cc2ncn(-c3cc(OCc4ccc(S(C)(=O)=O)cc4)c(C(N)=O)s3)c2cc1OC [BMCL191018 Compound 39]
